# According to patent US20210236476A1, “METHODS OF TREATING CANCER WITH SMALL MOLECULE PD-L1 INHIBITORS” (CHEMOCENTRYX, INC., priority 2018, published 2021):
# Molecular target: T1, human PD-L1 / human PD-1 interaction (Homo sapiens, UniProt Q9NZQ7)
# T1 construct: purchased R&D (PD-L1); ACRO Biosystems (PD-1, biotin)
# Assay: ELISA of PD-1/PD-L1 interaction
# Assay type: binding
# Summary of the method: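 Plates coated with 1 μg/mL human PD-L1 and blocked with BSA; serially diluted (1:5) compounds plus biotinylated human PD-1 (0.3 μg/mL) incubated 1 h at 37° C. Bound PD-1 detected with streptavidin-HRP/TMB, absorbance at 450 nm.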
# T1 sequence (Q9NZQ7 19-239 limits assumed): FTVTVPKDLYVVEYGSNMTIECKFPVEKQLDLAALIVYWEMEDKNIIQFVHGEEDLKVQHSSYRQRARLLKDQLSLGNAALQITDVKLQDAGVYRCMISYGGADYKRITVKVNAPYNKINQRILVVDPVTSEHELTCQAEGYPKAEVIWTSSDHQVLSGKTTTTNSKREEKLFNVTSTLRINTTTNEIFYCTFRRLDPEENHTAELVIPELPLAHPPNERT
row,Structure (SMILES),IC50 [nM]
1,CCOc1cc(O[C@H]2CCc3c(-c4cccc(OCCCN5CCC5(C)C)c4C)cccc32)c(Cl)cc1CN1CC[C@H](C(=O)O)C1,5 to 500
2,Cc1c(OCCCN2C(C)CC2C)cccc1-c1cccc2c1CC[C@@H]2Oc1cc(OCc2cc(C#N)cc(C#N)c2)c(CN[C@H]2CCC(=O)NC2)cc1Cl (some centres unmarked),< 5
3,Cc1c(OCCCN2CCC(O)CC2)cccc1-c1cccc2c1CC[C@@H]2Oc1cc(OCc2cc(C#N)cc(C#N)c2)c(CN[C@H](C(=O)O)[C@@H](C)O)cc1Cl,< 5
4,CC(C)N1CCC(COc2cccc(-c3cccc4c3CC[C@@H]4Oc3cc(OCc4cncc(C#N)c4)c(CN[C@H]4CCC(=O)NC4)cc3Cl)c2Cl)C1 (some centres unmarked),< 5
5,N#Cc1cncc(COc2cc(O[C@H]3CCc4c(-c5cccc(OCCCN6CCC(F)CC6)c5Cl)cccc43)c(Cl)cc2CN[C@@H]2CCC[C@H]2O)c1,< 5
6,Cc1c(OCCCN2CCC(F)CC2)cccc1-c1cccc2c1CC[C@@H]2Oc1cc(OCc2cncc(C#N)c2)c(CNCC2CCC(=O)N2)cc1Cl (some centres unmarked),< 5
7,CCOc1cc(O[C@H]2CCc3c(-c4cccc(OCCCN5CCCC5(C)C)c4C)cccc32)c(Cl)cc1CNC[C@@H]1CCC(=O)N1,< 5
8,Cc1c(OCCCN2CC(O)C2)cccc1-c1cccc2c1CC[C@@H]2Oc1cc(OCc2cncc(C#N)c2)c(CN[C@H](C(=O)O)[C@@H](C)O)cc1Cl,< 5
9,N#Cc1cncc(COc2cc(O[C@H]3CCc4c(-c5cccc(OCCCN6CCC(F)CC6)c5Cl)cccc43)c(Cl)cc2CN[C@@H]2CCOC[C@H]2O)c1,< 5
10,N#Cc1cncc(COc2cc(O[C@H]3CCc4c(-c5cccc(OCCCN6CCC(F)CC6)c5Cl)cccc43)c(Cl)cc2CN[C@H]2CCOC[C@H]2O)c1,< 5
11,CCOc1cc(O[C@H]2CCc3c(-c4cccc(OCCCN5CC(O)C5)c4Cl)cccc32)c(Cl)cc1CN[C@@](C)(CO)C(=O)O,< 5
12,N#Cc1cncc(COc2cc(O[C@H]3CCc4c(-c5cccc(OCCCN6CCC(F)CC6)c5Cl)cccc43)c(Cl)cc2CN2CC3(C2)NC(=O)NC3=O)c1,< 5
13,Cc1c(OCCCN[C@@H]2CCCC[C@@H]2O)cccc1-c1cccc2c1CC[C@@H]2Oc1cc(OCc2cncc(C#N)c2)c(CN[C@H](C(=O)O)[C@@H](C)O)cc1Cl,< 5
14,Cc1c(OCCCN2[C@H](C)CC[C@H]2C)cccc1-c1cccc2c1CC[C@@H]2Oc1cc(OCc2cc(C#N)cc(C#N)c2)c(CN[C@H]2CCC(=O)NC2)cc1Cl,< 5
15,Cc1c(OCCCN2CCC(F)CC2)cccc1-c1cccc2c1CC[C@@H]2Oc1cc(OCc2cc(C#N)cc(C#N)c2)c(CN[C@@H]2CCC[C@@H]2O)cc1Cl,< 5
16,N#Cc1cncc(COc2cc(O[C@H]3CCc4c(-c5cccc(OCCCN6CCC(F)CC6)c5Cl)cccc43)c(Cl)cc2CNC[C@@H]2CCC(=O)N2)c1,< 5
17,CCOc1cc(O[C@H]2CCc3c(-c4cccc(OCCCN5CCC(O)CC5)c4C)cccc32)c(Cl)cc1CN[C@@H](CO)C(=O)O,< 5
18,CCOc1cc(O[C@H]2CCc3c(-c4cccc(OCCCN5CCC(O)CC5)c4C)cccc32)c(Cl)cc1CN[C@H](C(=O)O)[C@@H](C)O,< 5
19,N#Cc1cncc(COc2cc(O[C@H]3CCc4c(-c5cccc(OCCCN6CCC(O)CC6)c5Cl)cccc43)c(Cl)cc2CNC[C@H]2CCC(=O)N2)c1,< 5

row,Structure (SMILES),IC50 [nM]
1,C[C@@](CO)(NCc1cc(Cl)c(O[C@H]2CCc3c(-c4cccc(OCCCN5CCC(O)CC5)c4Cl)cccc32)cc1OCc1cncc(C#N)c1)C(=O)O,< 5
2,N#Cc1cncc(COc2cc(O[C@H]3CCc4c(-c5cccc(OCCCN6CCC(F)CC6)c5Cl)cccc43)c(Cl)cc2CN2CC[C@@H](F)C2)c1,< 5
3,CCOc1cc(O[C@H]2CCc3c(-c4cccc(OCCCN5CC(O)C5)c4C)cccc32)c(Cl)cc1CN[C@@H](CO)C(=O)O,< 5
4,N#Cc1cncc(COc2cc(O[C@H]3CCc4c(-c5cccc(OCCCN6CC7(CC(O)C7)C6)c5Cl)cccc43)c(Cl)cc2CNC[C@H]2CCC(=O)N2)c1,< 5
5,Cc1c(OCCCN2CCC(O)CC2)cccc1-c1cccc2c1CC[C@@H]2Oc1cc(OCc2cncc(C#N)c2)c(CN2CCC(C)(O)CC2)cc1Cl,< 5
6,Cc1c(OCCCN2[C@H](C)CCC[C@@H]2C)cccc1-c1cccc2c1CC[C@@H]2Oc1cc(OCc2cc(C#N)cc(C#N)c2)c(CN[C@H]2CCC(=O)NC2)cc1Cl,5 to 500
7,Cc1c(OCCCN2CCC(F)CC2)cccc1-c1cccc2c1CC[C@@H]2Oc1cc(OCc2cc(C#N)cc(C#N)c2)c(CN[C@H]2CCC[C@H]2O)cc1Cl,< 5
8,Cc1c(OCCCN2CCC(F)CC2)cccc1-c1cccc2c1CC[C@@H]2Oc1cc(OCc2cc(C#N)cc(C#N)c2)c(CN[C@H]2CCOC[C@H]2O)cc1Cl,< 5
9,Cc1c(OCCCN2CCC(O)CC2)cccc1-c1cccc2c1CC[C@@H]2Oc1cc(OCc2cncc(C#N)c2)c(CN[C@H](C(=O)NS(C)(=O)=O)[C@@H](C)O)cc1Cl,< 5
10,Cc1c(OCCCN2C3CCC2CC(O)C3)cccc1-c1cccc2c1CC[C@@H]2Oc1cc(OCc2cncc(C#N)c2)c(CNCC2CCC(=O)N2)cc1Cl (some centres unmarked),< 5
11,Cc1c(OCCCN2CC(C)(C)C2)cccc1-c1cccc2c1CC[C@@H]2Oc1cc(OCc2cc(C#N)cc(C#N)c2)c(CN[C@H]2CCC(=O)NC2)cc1Cl,< 5
12,CCOc1cc(O[C@H]2CCc3c(-c4cccc(OCCCN5[C@H](C)CC[C@H]5C)c4C)cccc32)c(Cl)cc1CNC[C@@H]1CCC(=O)N1,< 5
13,CCOc1cc(O[C@H]2CCc3c(-c4cccc(OCCCN(C)C(C)(C)C)c4C)cccc32)c(Cl)cc1CNC[C@@H]1CCC(=O)N1,< 5
14,Cc1c(OCCCN2CCC(O)CC2)cccc1-c1cccc2c1C[C@@H](F)[C@@H]2Oc1cc(OCc2cncc(C#N)c2)c(CN[C@@H](CO)C(=O)O)cc1Cl,< 5
15,N#Cc1cncc(COc2cc(O[C@H]3CCc4c(-c5cccc(OCCCN6CCC(O)CC6)c5Cl)cccc43)c(Cl)cc2CN[C@@H](CO)C(=O)O)c1,< 5
16,Cc1c(OCCCN2CCC(O)CC2)cccc1-c1cccc2c1CC[C@@H]2Oc1cc(OCc2cncc(C#N)c2)c(CN[C@H](C(=O)O)[C@@H](C)O)cc1Cl,< 5
17,Cc1c(OCCCN2CCCCC2)cccc1-c1cccc2c1CC[C@@H]2Oc1cc(OCc2cc(C#N)cc(C#N)c2)c(CN[C@@H]2CCCC[C@@H]2O)cc1Cl,< 5
18,Cc1c(OCCCN2C(C)CCC2C)cccc1-c1cccc2c1CC[C@@H]2Oc1cc(OCc2cc(C#N)cc(C#N)c2)c(CN[C@H]2CCC(=O)NC2)cc1Cl (some centres unmarked),< 5
19,Cc1c(OCCCN2CCC(F)(F)CC2)cccc1-c1cccc2c1CC[C@@H]2Oc1cc(OCc2cncc(C#N)c2)c(CN[C@H](C(=O)O)[C@@H](C)O)cc1Cl,5 to 500

# Other lines, results leading:
row,IC50 [nM],Structure (SMILES)
1,< 5,N#Cc1cc(C#N)cc(COc2cc(O[C@H]3CCc4c(-c5cccc(OCCCN6CCC(F)CC6)c5Cl)cccc43)c(Cl)cc2CNC[C@H]2CCC(=O)N2)c1
2,< 5,Cc1c(OCCCN2CCC(O)CC2)cccc1-c1cccc2c1CCC2Oc1cc(OCc2cncc(C#N)c2)c(CN[C@H](C(=O)O)[C@@H](C)O)cc1Cl (some centres unmarked)
3,< 5,CCN1CCC(COc2cccc(-c3cccc4c3CC[C@@H]4Oc3cc(OCc4cncc(C#N)c4)c(CN[C@H]4CCC(=O)NC4)cc3Cl)c2Cl)C1 (some centres unmarked)
4,< 5,CCOc1cc(O[C@H]2CCc3c(-c4cccc(OCCCN5CC[C@@H](O)C5)c4C)cccc32)c(Cl)cc1CNC(C)(CO)CO
5,< 5,N#Cc1cncc(COc2cc(O[C@H]3CCc4c(-c5cccc(OCCCN6CC(O)C6)c5Cl)cccc43)c(Cl)cc2CNCC(=O)O)c1
6,< 5,Cc1c(OCCCN2CCC(O)CC2)cccc1-c1cccc2c1CC[C@@H]2Oc1cc(OCc2cncc(C#N)c2)c(CN2CCC(O)CC2)cc1Cl
7,< 5,CN(Cc1cc(Cl)c(O[C@H]2CCc3c(-c4cccc(OCCCN5CC(O)C5)c4Cl)cccc32)cc1OCc1cncc(C#N)c1)[C@@](C)(CO)C(=O)O
8,< 5,COC(=O)C1(O)CCN(CCCOc2cccc(-c3cccc4c3CC[C@@H]4Oc3cc(OCc4cncc(C#N)c4)c(CN[C@H](C(=O)O)[C@@H](C)O)cc3Cl)c2C)C1 (some centres unmarked)
9,< 5,Cc1c(OCCCN2CCC(F)CC2)cccc1-c1cccc2c1CC[C@@H]2Oc1cc(OCc2cncc(C#N)c2)c(CNC[C@@H]2CCC(=O)N2)cc1Cl
10,< 5,CC(CO)(CO)NCc1cc(Cl)c(O[C@H]2CCc3c(-c4cccc(OCCCN5CCNC(=O)C5)c4Cl)cccc32)cc1OCc1cncc(C#N)c1
11,< 5,Cc1c(OCCCN2CCCC[C@H]2C)cccc1-c1cccc2c1CC[C@@H]2Oc1cc(OCc2cc(C#N)cc(C#N)c2)c(CNC[C@H]2CCC(=O)N2)cc1Cl
12,< 5,Cc1c(OCCCN2CCCCC2)cccc1-c1cccc2c1CC[C@@H]2Oc1cc(OCc2cc(C#N)cc(C#N)c2)c(CNC[C@H]2CCC(=O)N2)cc1Cl
13,< 5,N#Cc1cncc(COc2cc(O[C@H]3CCc4c(-c5cccc(OCCCN6CC(O)C6)c5Cl)cccc43)c(Cl)cc2CN2CCC(O)CC2)c1
14,< 5,Cc1c(OCCCN2CC(F)C2)cccc1-c1cccc2c1CC[C@@H]2Oc1cc(OCc2cncc(C#N)c2)c(CNCC2CCC(=O)N2)cc1Cl (some centres unmarked)
15,< 5,C[C@@H](O)[C@H](NCc1cc(Cl)c(O[C@H]2CCc3c(-c4cccc(OCCCN5CCC(C)(F)CC5)c4Cl)cccc32)cc1OCc1cncc(C#N)c1)C(=O)NS(C)(=O)=O
16,< 5,N#Cc1cncc(COc2cc(O[C@H]3CCc4c(-c5cccc(OCCCN6CC7(CC(O)C7)C6)c5Cl)cccc43)c(Cl)cc2CN[C@H]2CCC[C@@H]2O)c1
17,< 5,N#Cc1cncc(COc2cc(O[C@H]3CCc4c(-c5cccc(OCCCN6CC(O)C6)c5Cl)cccc43)c(Cl)cc2CN2CC[C@@H](O)C2)c1
18,< 5,N#Cc1cncc(COc2cc(O[C@H]3CCc4c(-c5cccc(OCCCN6CCC(F)CC6)c5Cl)cccc43)c(Cl)cc2CN[C@H]2CCOC[C@@H]2O)c1 [drawing 235]
19,< 5,CCOc1cc(O[C@H]2CCc3c(-c4cccc(OCCCN5CCC5(C)C)c4C)cccc32)c(Cl)cc1CNC[C@@H]1CCC(=O)N1
20,< 5,Cc1c(OCCCN2CCC(F)CC2)cccc1-c1cccc2c1CC[C@@H]2Oc1cc(OCc2cncc(C#N)c2)c(CNC[C@H]2CCC(=O)N2)cc1Cl
21,< 5,N#Cc1cncc(COc2cc(O[C@H]3CCc4c(-c5cccc(OCCCN6CC7(CC(O)C7)C6)c5Cl)cccc43)c(Cl)cc2CN[C@@H]2CCC[C@H]2O)c1
